Test results taken from patent US20080261918A1, “Silicon Compounds and Their Use” (priority 2003, published 2008).

Target: T1, human GnRH receptors (Homo sapiens, UniProt P30968)
T1 construct: expressed in transfected cells; host or cells: CHO-K1
T1 sequence (P30968 1-328): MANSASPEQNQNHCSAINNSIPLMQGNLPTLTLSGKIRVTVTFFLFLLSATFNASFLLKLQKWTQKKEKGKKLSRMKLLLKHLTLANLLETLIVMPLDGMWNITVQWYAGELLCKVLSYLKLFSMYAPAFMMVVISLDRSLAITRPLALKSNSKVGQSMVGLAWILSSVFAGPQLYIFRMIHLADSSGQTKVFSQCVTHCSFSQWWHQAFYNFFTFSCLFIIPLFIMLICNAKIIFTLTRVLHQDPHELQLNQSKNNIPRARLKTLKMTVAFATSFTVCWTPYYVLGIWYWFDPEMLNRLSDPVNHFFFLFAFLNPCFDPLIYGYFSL
Test: Human GnRH receptor functional assay (intracellular calcium release)
Format: cell-based
Details: CHO-K1 cells expressing human GnRH receptors; block of GnRH (EC80)-induced calcium release; 20 min preincubation
Description: Human GnRH Receptor Functional Assay
GnRH-receptor antagonists may be functionally assessed by measurement of change in intracellular calcium levels induced by Gαq mediated increase in IP3 levels. The ability of compounds to block the intracellular release of calcium by GnRH in CHO-K1 cells expressing human GnRH receptors is determined as a measure of the compound's antagonist activity in vitro. Approximately 30,000 cells per assay well (half well 96 well assay plate—Corning) are seeded in normal culture medium. Twenty four hours after seeding the cells are loaded with a calcium sensitive fluorescent dye by replacing the culture medium with assay buffer (1×Hanks buffered saline, 25 mM HEPES, 0.1% w/v fatty acid free BSA, pH7.4) containing 2.5 mM probenecid and 1×Calcium Plus reagent (Molecular) Devices. Cells are incubated at 37° C. for 1 hour to allow for dye uptake. […] After incubation with test compounds the assay plate is placed in a Flexstation II (Molecular Devices) and GnRH is added at the determined EC80 concentration (final). Ligand-dependent changes in intracellular calcium levels are determined by measuring changes in fluorescence of the dye at […] following excitation at 485 nm. Percentage inhibition curves are plotted using 4-parameter fit algorithm and IC50 values calculated for each compound.

- IC50: 160 nM
SMILES: COc1nc(N2CCC(N(C)C)C2)nc(OC)c1NC(=O)c1ccc(Oc2cc([Si](C)(C)C)ccc2C)o1 (stereo not shown) [Example 2, N-(2-(3-(dimethylamino)pyrrolidin-1-yl)-4,6-dimethoxypyrimidin-5-yl)-5-(2-methyl-5-(trimethylsilyl)phenoxy)furan-2-carboxamide]
